Laboratory results taken from ChEMBL document CHEMBL1201862, “PubChem BioAssay data set” (2004).
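Where inhibition never reached the appropriate level, the endpoint shown equals the highest concentration tested. Otherwise, values were interpolated linearly from a five-concentration, 48-hour dose response in 96-well plates. At the GI50, growth is halved.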 Calls of active or inactive are those of the source. No stated cut-off is given here; in the data, active = GI50 up to about 1.1 µM and inactive = higher.

How the values were obtained:
Test in all cases: inhibition of tumour cell growth, NCI panel, 48 h
SNB-19 = tested on: SNB-19
COLO 205 = tested on: COLO 205
OVCAR-3 = tested on: OVCAR-3
HT-29 = tested on: HT-29
IGROV-1 = tested on: IGROV-1
HCC 2998 = tested on: HCC 2998
A498 = tested on: A498
K562 = tested on: K562
NCI-H460 = tested on: NCI-H460
OVCAR-4 = tested on: OVCAR-4
NCI-H23 = tested on: NCI-H23
UO-31 = tested on: UO-31
NCI-H522 = tested on: NCI-H522
A549 = tested on: A549
PC-3 = tested on: PC-3
UACC-257 = tested on: UACC-257
Hs-578T = tested on: Hs-578T
DU-145 = tested on: DU-145
MDA-MB-435 = tested on: MDA-MB-435

SMILES | GI50 (SNB-19) | GI50 (COLO 205) | GI50 (OVCAR-3) | GI50 (HT-29) | GI50 (IGROV-1) | GI50 (HCC 2998) | GI50 (A498) | GI50 (K562) | GI50 (NCI-H460) | GI50 (OVCAR-4) | GI50 (NCI-H23) | GI50 (UO-31) | GI50 (NCI-H522) | GI50 (A549) | GI50 (PC-3) | GI50 (UACC-257) | GI50 (Hs-578T) | GI50 (DU-145) | GI50 (MDA-MB-435)
COc1ccc(CN2CCC/C=C/CC(Cl)(Cl)C2=O)cc1 | 25.2 µM (inactive) | 20.4 µM (inactive) | 34.8 µM (inactive) | 35.8 µM (inactive) | 38.4 µM (inactive) | 35.3 µM (inactive) | 19.2 µM (inactive) | 35.6 µM (inactive) | 29.4 µM (inactive) | 23 µM (inactive) | 27.2 µM (inactive) | 21.2 µM (inactive) | 19.8 µM (inactive) | 35 µM (inactive) |  |  |  |  | 
Cn1c(=O)c2c(ncn2CCCCOc2ccc3c(c2)[n+]([O-])nc(N)[n+]3[O-])n(C)c1=O | 31.1 µM (inactive) | 17 µM (inactive) | 20.4 µM (inactive) | 43.2 µM (inactive) | 15.7 µM (inactive) | 19.2 µM (inactive) |  | 20.9 µM (inactive) | 31 µM (inactive) | 41.8 µM (inactive) | 12.4 µM (inactive) | > 100 µM (inactive) | 16.4 µM (inactive) | 65.6 µM (inactive) | 21.3 µM (inactive) | 23.9 µM (inactive) | 22.9 µM (inactive) | 44.2 µM (inactive) | 11.8 µM (inactive)
CN(C)c1ccc(/C=C2\C[C@H]3[C@@H]4CC=C5C[C@@H](O)CC[C@]5(C)[C@H]4CC[C@]3(C)[C@H]2O)cc1 | 15.7 µM (inactive) | 11 µM (inactive) | 22.5 µM (inactive) | 8.09 µM (inactive) | 19.2 µM (inactive) |  | 17.2 µM (inactive) | 28 µM (inactive) | 14.4 µM (inactive) | 35.6 µM (inactive) | 15.9 µM (inactive) | 19.3 µM (inactive) |  | 13.6 µM (inactive) | 13.1 µM (inactive) | 18.2 µM (inactive) | 23.4 µM (inactive) | 34.1 µM (inactive) | 
Cc1cc(Cl)ccc1C1OC(=O)c2c1ccc1ccccc21 (stereo not drawn) | > 100 µM (inactive) | > 100 µM (inactive) | > 100 µM (inactive) | > 100 µM (inactive) | > 100 µM (inactive) | > 100 µM (inactive) | > 100 µM (inactive) | > 100 µM (inactive) | > 100 µM (inactive) | 23.6 µM (inactive) | > 100 µM (inactive) | > 100 µM (inactive) | > 100 µM (inactive) | > 100 µM (inactive) |  | > 100 µM (inactive) |  |  | 
CCN1CN(c2ccccc2)C2(CCN(CCCSc3ccc(F)cc3)CC2)C1=O | 10.1 µM (inactive) | 2.41 µM (inactive) | 13.9 µM (inactive) | 3.36 µM (inactive) | 5.3 µM (inactive) |  |  | 12.9 µM (inactive) |  |  | 10.4 µM (inactive) | 5.97 µM (inactive) | 15 µM (inactive) | 6.12 µM (inactive) | 11.8 µM (inactive) | 6.11 µM (inactive) |  | 4.65 µM (inactive) | 12.8 µM (inactive)
CC(C)CC1C(=O)NCCC(NC(=O)C(Cc2ccc(OC(C)(C)C)cc2)NC(=O)OC(C)(C)C)C(=O)NC(Cc2ccccc2)C(=O)NC(Cc2ccccc2)NC1=O (stereo not drawn) | 14.4 µM (inactive) | 3.32 µM (inactive) | 4.6 µM (inactive) | 3.67 µM (inactive) | 16 µM (inactive) | 17.3 µM (inactive) |  | 3.02 µM (inactive) | 2.96 µM (inactive) | 14.9 µM (inactive) | 13.3 µM (inactive) | > 100 µM (inactive) | 11.6 µM (inactive) |  | 14.5 µM (inactive) | 12.1 µM (inactive) | 13.4 µM (inactive) | 59.4 µM (inactive) | 2.82 µM (inactive)
CCOC(=O)[C@]12C(=C(c3ccccc3)O[C@H]3C=CCC[C@H]31)C(=O)C(=O)N2c1ccccc1 | > 100 µM (inactive) | > 100 µM (inactive) | > 100 µM (inactive) | 60 µM (inactive) |  | > 100 µM (inactive) | > 100 µM (inactive) | 17.5 µM (inactive) | > 100 µM (inactive) | > 100 µM (inactive) | > 100 µM (inactive) | > 100 µM (inactive) | 24 µM (inactive) | > 100 µM (inactive) | 58.2 µM (inactive) |  |  | > 100 µM (inactive) | 
COc1ccc(-c2cc(=O)c3c(O)c(OC)c(OC)c(OC)c3o2)cc1 [GARDENIN B] | 25.4 µM (inactive) | 7.83 µM (inactive) | 6.47 µM (inactive) | 4.17 µM (inactive) | 2.33 µM (inactive) | 1.71 µM (inactive) |  | 0.498 µM (active) | 24.9 µM (inactive) | > 100 µM (inactive) | > 36.3 µM (inactive) | > 100 µM (inactive) | 6.58 µM (inactive) | 10.1 µM (inactive) | 30 µM (inactive) | > 100 µM (inactive) | 26.2 µM (inactive) | > 100 µM (inactive) | 0.431 µM (active)
CN1CN(c2ccccc2)C2(CCN(CC(C)(c3ccc(F)cc3)C3OCCCO3)CC2)C1=O (stereo not drawn) | 17.3 µM (inactive) | 17.7 µM (inactive) | 11.5 µM (inactive) | 10.6 µM (inactive) | 18.5 µM (inactive) |  |  | 13.2 µM (inactive) |  |  | 14.9 µM (inactive) | 2.32 µM (inactive) | 16.8 µM (inactive) | 25.9 µM (inactive) | 17.4 µM (inactive) | 16 µM (inactive) |  | 27.6 µM (inactive) | 10.9 µM (inactive)
COc1ccc(C2C3=CONC3CC3CCCCC32)cc1 (stereo not drawn) | 92.7 µM (inactive) |  | 39.8 µM (inactive) | > 100 µM (inactive) | > 100 µM (inactive) | 18.5 µM (inactive) |  | 39.4 µM (inactive) | 33.8 µM (inactive) | 50.4 µM (inactive) | 35.2 µM (inactive) | 38 µM (inactive) | 29.6 µM (inactive) | 33.8 µM (inactive) | 30.6 µM (inactive) | 80.2 µM (inactive) |  |  | 47.9 µM (inactive)
CCOC(=O)C(C)(C)/C=C\C(Cl)=C(Cl)Cl | > 100 µM (inactive) | > 100 µM (inactive) | > 100 µM (inactive) | > 100 µM (inactive) | > 100 µM (inactive) | > 100 µM (inactive) |  | > 100 µM (inactive) |  |  | > 100 µM (inactive) | > 100 µM (inactive) | > 100 µM (inactive) | > 100 µM (inactive) | > 100 µM (inactive) | > 100 µM (inactive) | > 100 µM (inactive) | > 100 µM (inactive) | > 100 µM (inactive)
Cc1c(C#N)c(N)[nH]c(=S)c1C#N | > 100 µM (inactive) |  | > 100 µM (inactive) | > 100 µM (inactive) | > 100 µM (inactive) | > 100 µM (inactive) | > 100 µM (inactive) | > 100 µM (inactive) | > 100 µM (inactive) |  | > 100 µM (inactive) | > 100 µM (inactive) | > 100 µM (inactive) | > 100 µM (inactive) | > 100 µM (inactive) | > 100 µM (inactive) | > 100 µM (inactive) | > 100 µM (inactive) | 
